In US20260216170A1, “TETRAHYDROISOQUINOLINE HETEROBIFUNCTIONAL BCL-XL DEGRADERS” (Treeline Biosciences, Inc., priority 2023, published 2026):

Target: T1, Human BCL-XL protein (N-terminal HiBiT tagged BCL-XL expressed in HT1080 cells) (Homo sapiens, UniProt Q07817)
T1 construct: expressed in transfected cells; host or cells: HT-1080 (ATCC CCL-121), stably transduced with lentivirus pLV-UBC-N-HiBiT-BCL-XL-PGK-puro and selected with puromycin
Test: HiBiT Based Degradation Assay
Assay type: cell-based
Details: 24 hours incubation; for DC50: BCL-XL degradation, HT1080 cells expressing N-HiBiT-BCL-XL, normalized with DMSO control, geometric mean for multiple data points, read-out: EC50 (24 h); for Ymin (24 h): bottom of BCL-XL degradation curve (remaining HiBiT-BCL-XL signal vs DMSO control), HT1080 cells
From the text: HiBiT Based Degradation Assay
Human BCL-XL protein coding open reading frame fused with N-terminal HiBiT coding sequence (N-HiBiT-BCL-XL) was synthesized from Integrated DNA Technologies (IDT). Next, N-HiBiT-BCL-XL sequence was cloned into pLV-UBC-PGK-Puro, a lentivirus plasmid purchased from Vectorbuilder, to generate pLV-UBC-N-HiBiT-BCL-XL-PGK-puro. Lentiviral particles were generated from Lenti-X™ 293T cells (Clontech) by co-transfection of pLV-UBC-N-HiBiT-BCL-XL-PGK-puro plasmids and lentiviral packaging plasmid mix (Cellecta). HT-1080 [HT1080](ATCC CCL-121™) cells were infected with the lentivirus, and HT1080 cells stably integrated with the lentiviral vector were established by incubation with 1 μg/mL puromycin (Thermofisher). HT1080 cells expressing N-terminal HiBiT tagged BCL-XL were dispensed into 384-well plates pre-spotted with compounds at varying concentrations. Three thousand cells were seeded into each well in 40 μL of RPMI 1640 media. After 24 hours of incubation at 37° C. with 5% CO2, 30 μL of the NANO-GLO® HiBiT Lytic Detection System working solution (Promega) was added to each well and incubated at room temperature for 30 min. After incubation, luminescence was read on a PHERAstar FSX Plate Reader (BMG). BCL-XL degradation at each indicated concentration was normalized with DMSO control. The BCL-XL degradation curves were plotted using a four-parameter logistic model. For compounds displaying hook effects, curve fitting was performed using bottom point of hook curves (i.e., the point of Ymin) as bottom plateau to calculate EC50. For compounds with multiple data points, the geometric mean is presented.

T1 sequence (Q07817 whole entry): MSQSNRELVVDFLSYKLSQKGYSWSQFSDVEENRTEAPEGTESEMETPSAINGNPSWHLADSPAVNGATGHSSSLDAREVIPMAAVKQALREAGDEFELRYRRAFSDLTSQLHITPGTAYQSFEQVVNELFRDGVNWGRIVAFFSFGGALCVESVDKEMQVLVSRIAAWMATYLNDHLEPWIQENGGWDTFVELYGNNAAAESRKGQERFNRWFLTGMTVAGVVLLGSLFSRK

SMILES | DC50 [nM] | Ymin (24 h)
Cc1c(OCC2CC3(CCN(CC(=O)Nc4ccc5c(C6CCC(=O)NC6=O)nn(C)c5c4)CC3)C2)cccc1-c1ccc(N2CCc3ccnc(C(=O)Nc4nc5ccccc5s4)c3C2)nc1C(=O)O (stereo not drawn) [Compound 134, 6-(8-(benzo[d]thiazol-2-ylcarbamoyl)-3,4-dihydro-2,7-naphthyridin-2(1H)-yl)-3-(3-((7-(2-((3-(2,6-dioxopiperidin-3-yl)-1-methyl-1H-indazol-6-yl)amino)-2-oxoethyl)-7-azaspiro[3.5]nonan-2-yl)methoxy)-2-methylphenyl)picolinic acid] | 10 to 100 | B (30% ≤ Ymin < 50%)
COc1cc2c(C3CCC(=O)NC3=O)nn(C)c2cc1NC(=O)CN1CCC2(CC1)CC(COc1cccc(-c3ccc(N4CCc5cccc(C(=O)Nc6nc7ccccc7s6)c5C4)nc3C(=O)O)c1C)C2 (stereo not drawn) [Compound 126] | 100 to 1000 | C (50% ≤ Ymin < 70%)
Cn1nc(C2CCC(=O)NC2=O)c2ccc(NC(=O)CN3CCC(CCCOc4ccc(-c5ccc(N6CCc7cccc(C(=O)Nc8nc9ccccc9s8)c7C6)nc5C(=O)O)c(C(F)(F)F)c4)CC3)cc21 (stereo not drawn) [Compound 129, 6-(8-(benzo[d]thiazol-2-ylcarbamoyl)-3,4-dihydroisoquinolin-2(1H)-yl)-3-(4-(3-(1-(2-((3-(2,6-dioxopiperidin-3-yl)-1-methyl-1H-indazol-6-yl)amino)-2-oxoethyl)piperidin-4-yl)propoxy)-2-(trifluoromethyl)phenyl)picolinic acid] | < 10 | B (30% ≤ Ymin < 50%)
Cc1c(OCCCC2CCN(CCOc3ccc4c(C5CCC(=O)NC5=O)nn(C)c4c3)CC2)cccc1-c1ccc(N2CCc3cccc(C(=O)Nc4nc5ccccc5s4)c3C2)nc1C(=O)O (stereo not drawn) [Compound 156] | < 10 | B (30% ≤ Ymin < 50%)
Cn1nc(C2CCC(=O)NC2=O)c2ccc(NC(=O)CN3CCC(CCCOc4ccc(-c5ccc(N6CCc7ccnc(C(=O)Nc8nc9ccccc9s8)c7C6)nc5C(=O)O)c(C(F)(F)F)c4)CC3)cc21 (stereo not drawn) [Compound 157, 6-[8-(1,3-benzothiazol-2-ylcarbamoyl)-3,4-dihydro-1H-2,7-naphthyridin-2-yl]-3-[4-[3-[1-[2-[[3-(2,6-dioxo-3-piperidyl)-1-methyl-indazol-6-yl]amino]-2-oxo-ethyl]-4-piperidyl]propoxy]-2-(trifluoromethyl)phenyl]pyridine-2-carboxylic acid] | 10 to 100 | A (Ymin < 30%)
COc1cc2c(C3CCC(=O)NC3=O)nn(C)c2cc1NC(=O)CN1CCC(CCCOc2ccc(-c3ccc(N4CCc5cccc(C(=O)Nc6nc7ccccc7s6)c5C4)nc3C(=O)O)c(C)c2)CC1 (stereo not drawn) [Compound 103, 6-[8-(1,3-benzothiazol-2-ylcarbamoyl)-3,4-dihydro-1H-isoquinolin-2-yl]-3-[4-[3-[1-[2-[[3-(2,6-dioxo-3-piperidyl)-5-methoxy-1-methyl-indazol-6-yl]amino]-2-oxo-ethyl]-4-piperidyl]propoxy]-2-methyl-phenyl]pyridine-2-carboxylic acid] | 100 to 1000 | B (30% ≤ Ymin < 50%)
Cc1cc(OCCCCC2CCN(CC(=O)Nc3ccc4c(C5CCC(=O)NC5=O)nn(C)c4c3)CC2)ccc1-c1ccc(N2CCc3cccc(C(=O)Nc4nc5ccccc5s4)c3C2)nc1C(=O)O (stereo not drawn) [Compound 116, 6-[8-(1,3-benzothiazol-2-ylcarbamoyl)-3,4-dihydro-1H-isoquinolin-2-yl]-3-[4-[4-[1-[2-[[3-(2,6-dioxo-3-piperidyl)-1-methyl-indazol-6-yl]amino]-2-oxo-ethyl]-4-piperidyl]butoxy]-2-methyl-phenyl]pyridine-2-carboxylic acid] | < 10 | B (30% ≤ Ymin < 50%)
Cc1c(OCC2CC3(CCN(CC(=O)Nc4cc5c(cc4F)c(C4CCC(=O)NC4=O)nn5C)CC3)C2)cccc1-c1ccc(N2CCc3cccc(C(=O)Nc4nc5ccccc5s4)c3C2)nc1C(=O)O (stereo not drawn) [Compound 121] | 10 to 100 | B (30% ≤ Ymin < 50%)
C[C@H](COc1ccc(-c2ccc(N3CCc4cccc(C(=O)Nc5nc6ccccc6s5)c4C3)nc2C(=O)O)c(C(F)(F)F)c1)CC1CCN(CC(=O)Nc2ccc3c(C4CCC(=O)NC4=O)nn(C)c3c2)CC1 (single isomer, unassigned) [Compound 130b] | 10 to 100 | B (30% ≤ Ymin < 50%)
Cc1cc(OCC2CC3(CCN(CC(=O)Nc4ccc5c(C6CCC(=O)NC6=O)nn(C)c5c4F)CC3)C2)ccc1-c1ccc(N2CCc3cccc(C(=O)Nc4nc5ccccc5s4)c3C2)nc1C(=O)O (stereo not drawn) [Compound 122, 6-(8-(benzo[d]thiazol-2-ylcarbamoyl)-3,4-dihydroisoquinolin-2(1H)-yl)-3-(4-((7-(2-((3-(2,6-dioxopiperidin-3-yl)-7-fluoro-1-methyl-1H-indazol-6-yl)amino)-2-oxoethyl)-7-azaspiro[3.5]nonan-2-yl)methoxy)-2-methylphenyl)picolinic acid] | 10 to 100 | B (30% ≤ Ymin < 50%)

The remaining lines, values ahead:

DC50 [nM] | Ymin (24 h) | SMILES
10 to 100 | B (30% ≤ Ymin < 50%) | COc1c(NC(=O)CN2CC[C@H](CCCOc3cccc(-c4ccc(N5CCc6cccc(C(=O)Nc7nc8ccccc8s7)c6C5)nc4C(=O)O)c3C)C[C@@H]2C)ccc2c(C3CCC(=O)NC3=O)nn(C)c12 (stereo partly drawn) [Compound 208b]
10 to 100 | B (30% ≤ Ymin < 50%) | COc1c(NC(=O)CN2CCC(CCCOc3cccc(-c4ccc(N5CCc6cccc(C(=O)Nc7nc8ccccc8s7)c6C5)nc4C(=O)O)c3F)CC2)ccc2c(C3CCC(=O)NC3=O)nn(C)c12 (stereo not drawn) [Compound 200]
< 10 | B (30% ≤ Ymin < 50%) | Cc1cc(OC[C@H]2C[C@H]2CC2CCN(CC(=O)Nc3ccc4c(C5CCC(=O)NC5=O)nn(C)c4c3)CC2)ccc1-c1ccc(N2CCc3cccc(C(=O)Nc4nc5ccccc5s4)c3C2)nc1C(=O)O (single isomer, unassigned) [Compound 1002b]
< 10 | B (30% ≤ Ymin < 50%) | Cn1nc(C2CCC(=O)NC2=O)c2ccc(NC(=O)CN3CCC4(CC3)CC(Oc3ccc(-c5ccc(N6CCc7cccc(C(=O)Nc8nc9ccccc9s8)c7C6)nc5C(=O)O)c(C(F)(F)F)c3)C4)c(F)c21 (stereo not drawn) [Compound 189]
10 to 100 | B (30% ≤ Ymin < 50%) | Cc1c(OC[C@H]2C[C@@H]2CC2CCN(CC(=O)Nc3ccc4c(C5CCC(=O)NC5=O)nn(C)c4c3)CC2)cccc1-c1ccc(N2CCc3cccc(C(=O)Nc4nc5ccccc5s4)c3C2)nc1C(=O)O (single isomer, unassigned) [Compound 1004a]
10 to 100 | B (30% ≤ Ymin < 50%) | Cn1nc(C2CCC(=O)NC2=O)c2ccc(NC(=O)CN3CCC4(CC3)CC(COc3ccc(-c5ccc(N6CCc7cccc(C(=O)Nc8nc9ccccc9s8)c7C6)nc5C(=O)O)c(C(F)(F)F)c3)C4)c(F)c21 (stereo not drawn) [Compound 186]
< 10 | A (Ymin < 30%) | Cc1cc(OC[C@@H]2C[C@@H]2CC2CCN(CC(=O)Nc3ccc4c(C5CCC(=O)NC5=O)nn(C)c4c3)CC2)ccc1-c1ccc(N2CCc3cccc(C(=O)Nc4nc5ccccc5s4)c3C2)nc1C(=O)O (single isomer, unassigned) [Compound 1002d]
10 to 100 | B (30% ≤ Ymin < 50%) | Cc1c(OCCC[C@H]2CCN(CC(=O)Nc3ccc4c(C5CCC(=O)NC5=O)nn(C)c4c3)[C@H](C)C2)cccc1-c1ccc(N2CCc3ccnc(C(=O)Nc4nc5ccccc5s4)c3C2)nc1C(=O)O (stereo partly drawn) [Compound 216c]
< 10 | B (30% ≤ Ymin < 50%) | Cn1nc(C2CCC(=O)NC2=O)c2ccc(NC(=O)CN3CCC4(CC3)CC(Oc3cccc(-c5ccc(N6CCc7ccnc(C(=O)Nc8nc9ccccc9s8)c7C6)nc5C(=O)O)c3C(F)(F)F)C4)c(F)c21 (stereo not drawn) [Compound 214]
10 to 100 | B (30% ≤ Ymin < 50%) | Cc1c(OC[C@H]2C[C@H]2CC2CCN(CC(=O)Nc3ccc4c(C5CCC(=O)NC5=O)nn(C)c4c3)CC2)cccc1-c1ccc(N2CCc3cccc(C(=O)Nc4nc5ccccc5s4)c3C2)nc1C(=O)O (single isomer, unassigned) [Compound 1004d]
10 to 100 | B (30% ≤ Ymin < 50%) | COc1c(NC(=O)CN2CCC3(CC2)CC(Oc2ccc(-c4ccc(N5CCc6ccnc(C(=O)Nc7nc8ccccc8s7)c6C5)nc4C(=O)O)c(C(F)(F)F)c2)C3)ccc2c(C3CCC(=O)NC3=O)nn(C)c12 (stereo not drawn) [Compound 171, 6-(8-(benzo[d]thiazol-2-ylcarbamoyl)-3,4-dihydro-2,7-naphthyridin-2(1H)-yl)-3-(4-((7-(2-((3-(2,6-dioxopiperidin-3-yl)-7-methoxy-1-methyl-1H-indazol-6-yl)amino)-2-oxoethyl)-7-azaspiro[3.5]nonan-2-yl)oxy)-2-(trifluoromethyl)phenyl)picolinic acid]
